Measured values reported in patent US8268813B2, “Zilpaterol enantiomer compositions and methods of making and using such compositions” (Intervet International B.V., priority 2006, dated 2012).
Several values for one entry are separate records, joined by “and”; a condition that tells them apart may be missing. Identical values can stand only once. Like-named read-outs stand apart in the source and are kept apart here.

How the values were obtained:
human μ-opioid receptor = target: T1, human μ-opioid receptor (Homo sapiens, UniProt P35372); test: Radioligand binding assay, [3H]DAMGO, transfected HEK-293 cell membranes
T1 construct: expressed in transfected cells; host or cells: HEK-293 cells; membrane homogenates
T1 sequence (P35372 whole entry): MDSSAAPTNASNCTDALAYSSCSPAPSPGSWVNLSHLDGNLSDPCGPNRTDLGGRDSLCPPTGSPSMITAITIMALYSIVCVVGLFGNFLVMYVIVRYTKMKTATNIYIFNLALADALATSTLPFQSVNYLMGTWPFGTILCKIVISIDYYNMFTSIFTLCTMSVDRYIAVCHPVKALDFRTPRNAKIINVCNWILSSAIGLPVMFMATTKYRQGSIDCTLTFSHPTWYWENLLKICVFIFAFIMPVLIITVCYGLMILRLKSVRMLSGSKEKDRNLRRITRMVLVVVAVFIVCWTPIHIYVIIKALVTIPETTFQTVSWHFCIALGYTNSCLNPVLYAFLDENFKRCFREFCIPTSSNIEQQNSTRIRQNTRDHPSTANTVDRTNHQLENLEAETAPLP
Method: This investigation was conducted using a radioligand binding assay.
Non-specific binding was determined in the presence of 10 μM naloxone. Assay volume and format was 250 μl in 96-well plate. The test compound was added as a 10-fold concentrated solution, and the maximum tolerable DMSO concentration was 1%. Following incubation, the samples were filtered rapidly under vacuum through glass fiber filters (GF/B, Packard), pre-soaked with 0.3% PEI, and rinsed several times with ice-cold 50 mM Tris-HCl using a 96-sample cell harvester (Unifilter, Packard). The filters were dried, and counted for radioactivity in a scintillation counter (Topcount, Packard) using a scintillation cocktail (Microscint 0, Packard). The results were expressed as percent inhibition of the control radioligand specific binding.
Specific ligand binding to the receptors is the difference between the total binding and the non-specific binding determined in the presence of an excess of unlabelled ligand. The results are expressed as a percent of control specific binding and as a percent inhibition of control specific binding obtained in the presence of the test compounds.
The IC50 values (concentration causing a half-maximal inhibition of control specific binding) and Hill coefficients (nH) were determined by non-linear regression analysis of the competition curves using Hill equation curve fitting. […] Here, L is the concentration of radioligand in the assay, and KD is the affinity of the radioligand for the receptor.

μ-opioid receptor = test: Functional ex-vivo isolated organ bioassay (Guinea pig ileum), μ-opioid agonist response; details: Applicants believe results may be faulty
[1] = target: β2 adrenergic receptors in guinea pig trachea (Cavia porcellus, UniProt Q8K4Z4)
Chain of β2 adrenergic receptors in guinea pig trachea (Q8K4Z4 whole entry): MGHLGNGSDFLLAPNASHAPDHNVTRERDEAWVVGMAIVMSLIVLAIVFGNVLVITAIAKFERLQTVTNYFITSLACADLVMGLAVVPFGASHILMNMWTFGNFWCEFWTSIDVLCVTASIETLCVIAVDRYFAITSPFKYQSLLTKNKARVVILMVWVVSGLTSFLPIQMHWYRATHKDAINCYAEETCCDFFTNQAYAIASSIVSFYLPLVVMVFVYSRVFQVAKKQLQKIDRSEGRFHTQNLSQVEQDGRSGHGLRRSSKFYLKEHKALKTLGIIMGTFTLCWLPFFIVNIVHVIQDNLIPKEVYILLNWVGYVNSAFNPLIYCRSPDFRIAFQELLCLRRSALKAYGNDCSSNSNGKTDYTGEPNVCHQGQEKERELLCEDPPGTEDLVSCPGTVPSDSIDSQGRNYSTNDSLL
Method: In this experiment, β2 adrenergic receptor agonist activities were functionally determined using a quantitative ex-vivo guinea pig trachea bioassay. […] Following extensive washings and recovery to the initial state, the tissues were exposed to a single or several cumulative concentrations of the test compounds or the same agonist. Each concentration was left in contact with the tissues until a stable response was obtained. […] Assay volume and format was 20 ml organ baths. […] Following washings, the tissues were contracted again with carbachol, and then exposed to increasing concentrations of the test compound or the same agonist. […] If it occurred, a recovery of contraction by the test compound indicated an antagonist activity at the β2 receptors. The parameter measured was the maximal change in tension induced by each compound concentration. […] The agonist efficacy and potency of the test compounds were evaluated respectively in terms of Emax values (maximum response) and EC50 values (concentration producing a half-maximum response). These were determined from the concentration-response curves.

[2] = Table 12, test concentration 1.0E−03 M
[3] = Table 12, test concentration 1.0E−04 M
[4] = Table 12, test concentration 1.0E−05 M
[5] = Table 12, test concentration 1.0E−06 M
[6] = Table 12, test concentration 3.0E−05 M
[7] = Table 12, test concentration 3.0E−06 M
[8] = Table 12, test concentration 3.0E−07 M
[9] = Table 12, test concentration 3.0E−08 M
[10] = calculated from the data in Table 12
[11] = first assay, test concentration 1.0E−05 M
[12] = repeat assay, test concentration 1.0E−03 M
[13] = Table 12, test concentration 3.0E−04 M

SMILES	IC50 (human μ-opioid receptor) [µM]	Ki (human μ-opioid receptor) [µM]	binding to the μ-opioid receptor (human μ-opioid receptor)	% of Control Specific Binding, Mean (human μ-opioid receptor; [2]) [%]	% of Control Specific Binding, Run 1 (human μ-opioid receptor; [2]) [%]	% of Control Specific Binding, Run 2 (human μ-opioid receptor; [2]) [%]	% of Control Specific Binding, Mean (human μ-opioid receptor; [3]) [%]	% of Control Specific Binding, Run 1 (human μ-opioid receptor; [3]) [%]	% of Control Specific Binding, Run 2 (human μ-opioid receptor; [3]) [%]	% of Control Specific Binding, Mean (human μ-opioid receptor; [4]) [%]	% of Control Specific Binding, Run 1 (human μ-opioid receptor; [4]) [%]	% of Control Specific Binding, Run 2 (human μ-opioid receptor; [4]) [%]	% of Control Specific Binding, Mean (human μ-opioid receptor; [5]) [%]	% of Control Specific Binding, Run 2 (human μ-opioid receptor; [5]) [%]	% of Control Specific Binding, Mean (human μ-opioid receptor; [6]) [%]	% of Control Specific Binding, Run 1 (human μ-opioid receptor; [6]) [%]	% of Control Specific Binding, Run 2 (human μ-opioid receptor; [6]) [%]	% of Control Specific Binding, Run 1 (human μ-opioid receptor; [7]) [%]	% of Control Specific Binding, Run 2 (human μ-opioid receptor; [7]) [%]	% of Control Specific Binding, Mean (human μ-opioid receptor; [8]) [%]	also measured
CC(C)NC1CCn2c(=O)[nH]c3cccc(c32)C1O (racemic) [Racemic trans, 4,5,6,7-tetrahydro-7-hydroxy-6-(isopropylamino)imidazo[4,5,1-jk]-[1]benzazepin-2(1H)-one, reference compound]	31	13	greater binding	2.9	2.4	3.3	23.7	24.5	22.9	73.7	76.7	70.8	90.0	95.1	47.5	49.3	45.6	76.2	87.4	91.2	% of Control Specific Binding, Run 1 (human μ-opioid receptor; [5]): 84.9%; % of Control Specific Binding, Mean (human μ-opioid receptor; [7]): 81.8%; % of Control Specific Binding, Run 1 (human μ-opioid receptor; [8]): 92.1%; % of Control Specific Binding, Mean (human μ-opioid receptor; [9]): 98.3%; % of Control Specific Binding, Run 1 (human μ-opioid receptor; [9]): 105.8%; % of Control Specific Binding, Run 2 (human μ-opioid receptor; [9]): 90.9%; nH (Hill coefficient) (human μ-opioid receptor; [10]): 0.9; % Inhibition of Control Specific Binding (human μ-opioid receptor; [11]): 24%; % of Control Specific Binding, Mean (human μ-opioid receptor; [11]): 76.2%; % of Control Specific Binding, Run 1 (human μ-opioid receptor; [11]): 76.2%; % of Control Specific Binding, Run 2 (human μ-opioid receptor; [11]): 76.2%; % Inhibition of Control Specific Binding (human μ-opioid receptor; [12]): 98%; % of Control Specific Binding, Mean (human μ-opioid receptor; [12]): 2.2%; % of Control Specific Binding, Run 1 (human μ-opioid receptor; [12]): 1.6%; % of Control Specific Binding, Run 2 (human μ-opioid receptor; [12]): 2.9%
CC(C)N[C@@H]1CCn2c(=O)[nH]c3cccc(c32)[C@H]1O (single isomer, unassigned) [6R,7R enantiomer, 6R,7R zilpaterol enantiomer]	320	130	binds weakly	24.1	23.0	25.2	71.1	71.3	70.8	81.3	80.4	82.1	89.3	87.5	80.7	73.9	87.5	92.1	88.7	93.6	μ-opioid agonist response (μ-opioid receptor): greater μ-opioid agonist response than both the 6S,7S zilpaterol enantiomer and racemic trans zilpaterol; % of Control Specific Binding, Mean (human μ-opioid receptor; [13]): 43.5%; % of Control Specific Binding, Run 2 (human μ-opioid receptor; [13]): 40.4%; % of Control Specific Binding, Run 1 (human μ-opioid receptor; [8]): 94.8%; % of Control Specific Binding, Run 2 (human μ-opioid receptor; [8]): 92.4%; nH (Hill coefficient) (human μ-opioid receptor; [10]): 0.9; Ki (human μ-opioid receptor; calculated from the data in Table 12, Cheng Prusoff): 130 µM; % Inhibition of Control Specific Binding (human μ-opioid receptor; [11]): 7%; % of Control Specific Binding, Mean (human μ-opioid receptor; [11]): 92.9%; % of Control Specific Binding, Run 1 (human μ-opioid receptor; [11]): 90.8%; % of Control Specific Binding, Run 2 (human μ-opioid receptor; [11]): 95.0%; % Inhibition of Control Specific Binding (human μ-opioid receptor; [12]): 82%; % of Control Specific Binding, Mean (human μ-opioid receptor; [12]): 17.9%; % of Control Specific Binding, Run 1 (human μ-opioid receptor; [12]): 17.8%; % of Control Specific Binding, Run 2 (human μ-opioid receptor; [12]): 18.0%
CC(C)N[C@H]1CCn2c(=O)[nH]c3cccc(c32)[C@@H]1O [6S,7S enantiomer, 6S,7S zilpaterol enantiomer]	17	7	greater binding	1.2	1.4	0.9	16.4	15.9	16.9	60.2	61.1	59.2	87.7	84.6	36.1	34.9	37.2	81.0	77.2	95.3	% of Control Specific Binding, Run 1 (human μ-opioid receptor; [5]): 90.9%; % of Control Specific Binding, Mean (human μ-opioid receptor; [7]): 79.1%; % of Control Specific Binding, Run 1 (human μ-opioid receptor; [8]): 97.5%; % of Control Specific Binding, Run 2 (human μ-opioid receptor; [8]): 93.2%; % of Control Specific Binding, Mean (human μ-opioid receptor; [9]): 95.8%; % of Control Specific Binding, Run 1 (human μ-opioid receptor; [9]): 93.9%; % of Control Specific Binding, Run 2 (human μ-opioid receptor; [9]): 97.7%; nH (Hill coefficient) (human μ-opioid receptor; [10]): 0.9; % Inhibition of Control Specific Binding (human μ-opioid receptor; [11]): 34%; % of Control Specific Binding, Mean (human μ-opioid receptor; [11]): 66.3%; % of Control Specific Binding, Run 1 (human μ-opioid receptor; [11]): 67.2%; % of Control Specific Binding, Run 2 (human μ-opioid receptor; [11]): 65.4%; % Inhibition of Control Specific Binding (human μ-opioid receptor; [12]): 100%; % of Control Specific Binding, Mean (human μ-opioid receptor; [12]): 0.2%; % of Control Specific Binding, Run 1 (human μ-opioid receptor; [12]): 0.1%; % of Control Specific Binding, Run 2 (human μ-opioid receptor; [12]): 0.4%
C[C@@H](NC(=O)[C@@H](N)Cc1ccc(O)cc1)C(=O)NCC(=O)N(C)[C@@H](Cc1ccccc1)C(=O)NCCO [DAMGO, reference compound]	–	–	–	–	–	–	–	–	–	–	–	–	–	–	–	–	–	–	–	–	nH (Hill coefficient) (human μ-opioid receptor; reference compound, three independent experiments): 1.0 and 0.9
CC(C)(C)NCC(O)c1ccc(O)c(CO)c1 (centres unmarked) [Salbutamol, salbutamol]	–	–	–	–	–	–	–	–	–	–	–	–	–	–	–	–	–	–	–	–	Percent of the Control Response to Salbutamol at 3.0E−07 M, Mean ([1]; Table 6, concentration 3.0E−08 M): 50%; Percent of the Control Response to Salbutamol at 3.0E−07 M, Mean ([1]; Table 6, concentration 3.0E−09 M): 8%; Percent of the Control Response to Salbutamol at 3.0E−07 M, Mean ([1]; Table 6, highest concentration 3.0E−07 M + ICI 118551 3.0E−07 M): 2%; Percent of the Control Response to Salbutamol at 3.0E−07 M, Mean ([1]; Table 7, concentration 3.0E−08 M): 53%; Percent of the Control Response to Salbutamol at 3.0E−07 M, Mean ([1]; Table 7, concentration 3.0E−09 M): 11%; Percent of the Control Response to Salbutamol at 3.0E−07 M, Mean ([1]; Table 7, highest concentration 3.0E−07 M + ICI 118551 3.0E−07 M): 5%
